Activity calls are given as the source filed them. For most assays here, no stated cut-off is given here; in the data, actives have a measured Kd and inactives only a lower limit.
Key:
[1] = molecular target: Mitogen-activated protein kinase 8 (Homo sapiens, UniProt P45983)
[2] = molecular target: T1, ATP-dependent RNA helicase DDX42 (Homo sapiens, UniProt Q86XP3)
T1 sequence (Q86XP3 whole entry): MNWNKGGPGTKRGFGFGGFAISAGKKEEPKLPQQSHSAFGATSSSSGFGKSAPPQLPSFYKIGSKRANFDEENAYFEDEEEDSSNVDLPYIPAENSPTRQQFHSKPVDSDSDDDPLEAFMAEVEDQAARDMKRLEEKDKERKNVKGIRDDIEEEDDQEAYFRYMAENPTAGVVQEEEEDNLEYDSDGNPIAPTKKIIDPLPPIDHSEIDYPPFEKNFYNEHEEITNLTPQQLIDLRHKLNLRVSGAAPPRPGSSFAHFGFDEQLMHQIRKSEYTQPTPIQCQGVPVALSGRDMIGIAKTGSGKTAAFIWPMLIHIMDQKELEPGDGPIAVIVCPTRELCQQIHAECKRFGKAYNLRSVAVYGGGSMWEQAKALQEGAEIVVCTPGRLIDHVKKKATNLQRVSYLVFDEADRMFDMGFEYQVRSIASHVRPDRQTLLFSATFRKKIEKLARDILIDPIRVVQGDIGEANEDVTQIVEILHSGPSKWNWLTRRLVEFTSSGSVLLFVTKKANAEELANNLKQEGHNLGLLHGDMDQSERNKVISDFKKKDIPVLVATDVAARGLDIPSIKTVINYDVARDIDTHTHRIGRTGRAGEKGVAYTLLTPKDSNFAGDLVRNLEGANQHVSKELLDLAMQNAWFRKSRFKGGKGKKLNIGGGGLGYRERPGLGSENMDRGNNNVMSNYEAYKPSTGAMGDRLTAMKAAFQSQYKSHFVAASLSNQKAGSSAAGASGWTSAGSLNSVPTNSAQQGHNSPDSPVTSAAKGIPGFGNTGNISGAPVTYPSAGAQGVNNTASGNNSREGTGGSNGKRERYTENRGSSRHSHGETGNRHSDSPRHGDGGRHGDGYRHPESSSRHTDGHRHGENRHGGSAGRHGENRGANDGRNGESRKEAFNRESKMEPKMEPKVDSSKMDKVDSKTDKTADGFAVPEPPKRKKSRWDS

Ephrin type-A receptor 2 = Ephrin type-A receptor 2 (Homo sapiens, UniProt P29317)
Chain of Ephrin type-A receptor 2 (P29317 whole entry): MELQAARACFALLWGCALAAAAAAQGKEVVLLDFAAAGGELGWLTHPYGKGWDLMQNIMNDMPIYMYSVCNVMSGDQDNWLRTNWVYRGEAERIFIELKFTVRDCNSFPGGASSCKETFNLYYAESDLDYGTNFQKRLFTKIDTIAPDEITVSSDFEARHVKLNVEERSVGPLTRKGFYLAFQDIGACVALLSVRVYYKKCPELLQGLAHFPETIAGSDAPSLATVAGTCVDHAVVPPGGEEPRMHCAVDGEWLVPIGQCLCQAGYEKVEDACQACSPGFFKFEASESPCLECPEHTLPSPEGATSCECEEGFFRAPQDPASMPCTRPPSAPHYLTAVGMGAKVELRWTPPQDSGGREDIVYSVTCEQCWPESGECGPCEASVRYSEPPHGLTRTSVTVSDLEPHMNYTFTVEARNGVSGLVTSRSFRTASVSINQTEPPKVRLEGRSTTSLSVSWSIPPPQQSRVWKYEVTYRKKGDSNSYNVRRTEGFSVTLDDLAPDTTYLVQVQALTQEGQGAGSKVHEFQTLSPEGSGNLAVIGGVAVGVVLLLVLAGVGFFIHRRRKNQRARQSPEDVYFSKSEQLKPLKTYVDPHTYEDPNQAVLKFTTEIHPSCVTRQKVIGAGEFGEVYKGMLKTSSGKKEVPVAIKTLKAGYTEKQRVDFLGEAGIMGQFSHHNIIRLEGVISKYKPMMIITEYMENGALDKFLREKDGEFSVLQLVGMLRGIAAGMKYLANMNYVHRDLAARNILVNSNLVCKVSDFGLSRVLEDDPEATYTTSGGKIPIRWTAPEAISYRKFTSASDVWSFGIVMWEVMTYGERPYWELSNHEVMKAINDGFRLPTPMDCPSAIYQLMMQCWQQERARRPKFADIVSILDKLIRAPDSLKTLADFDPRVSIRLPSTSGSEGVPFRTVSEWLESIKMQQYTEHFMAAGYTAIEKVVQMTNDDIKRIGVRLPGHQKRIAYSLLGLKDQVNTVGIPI

[3] = molecular target: Ribosomal protein S6 kinase alpha-6 (Homo sapiens, UniProt Q9UK32)
Chain of Ribosomal protein S6 kinase alpha-6 (Q9UK32 whole entry): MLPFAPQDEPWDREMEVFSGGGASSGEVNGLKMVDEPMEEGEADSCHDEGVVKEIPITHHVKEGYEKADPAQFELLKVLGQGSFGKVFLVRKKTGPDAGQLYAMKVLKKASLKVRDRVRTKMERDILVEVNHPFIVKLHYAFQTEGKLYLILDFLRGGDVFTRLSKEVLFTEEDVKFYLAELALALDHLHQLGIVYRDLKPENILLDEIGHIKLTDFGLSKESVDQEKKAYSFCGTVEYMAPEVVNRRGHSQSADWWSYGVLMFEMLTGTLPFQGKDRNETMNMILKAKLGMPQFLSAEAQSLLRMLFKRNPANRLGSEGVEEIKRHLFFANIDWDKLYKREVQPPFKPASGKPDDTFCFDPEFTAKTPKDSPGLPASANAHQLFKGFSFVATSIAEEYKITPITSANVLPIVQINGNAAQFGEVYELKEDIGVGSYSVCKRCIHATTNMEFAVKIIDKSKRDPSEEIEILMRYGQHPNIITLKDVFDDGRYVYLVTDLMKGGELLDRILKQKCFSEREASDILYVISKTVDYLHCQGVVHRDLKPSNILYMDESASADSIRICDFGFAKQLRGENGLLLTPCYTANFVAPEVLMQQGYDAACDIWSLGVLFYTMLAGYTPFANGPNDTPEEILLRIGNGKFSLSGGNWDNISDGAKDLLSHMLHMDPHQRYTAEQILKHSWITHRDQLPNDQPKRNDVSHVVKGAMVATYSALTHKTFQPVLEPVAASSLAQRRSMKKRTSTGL

[4] = molecular target: T2, Serine/threonine-protein kinase ULK3 (Homo sapiens, UniProt Q6PHR2)
T2 sequence (Q6PHR2 whole entry): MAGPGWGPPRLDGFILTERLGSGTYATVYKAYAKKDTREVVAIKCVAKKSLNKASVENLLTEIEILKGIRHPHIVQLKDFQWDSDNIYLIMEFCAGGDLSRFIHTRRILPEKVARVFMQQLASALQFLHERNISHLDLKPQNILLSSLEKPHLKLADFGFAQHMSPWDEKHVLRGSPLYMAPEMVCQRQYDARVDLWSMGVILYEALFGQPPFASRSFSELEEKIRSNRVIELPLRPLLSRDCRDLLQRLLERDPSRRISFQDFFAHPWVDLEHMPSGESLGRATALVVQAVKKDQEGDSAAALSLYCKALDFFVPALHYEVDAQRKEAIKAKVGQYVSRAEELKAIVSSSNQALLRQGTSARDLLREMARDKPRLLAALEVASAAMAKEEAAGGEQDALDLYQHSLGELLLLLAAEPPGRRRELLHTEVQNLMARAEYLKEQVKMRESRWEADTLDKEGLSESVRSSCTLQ

[5] = molecular target: Bone morphogenetic protein receptor type-1B (Homo sapiens, UniProt O00238)
Chain of Bone morphogenetic protein receptor type-1B (O00238 whole entry): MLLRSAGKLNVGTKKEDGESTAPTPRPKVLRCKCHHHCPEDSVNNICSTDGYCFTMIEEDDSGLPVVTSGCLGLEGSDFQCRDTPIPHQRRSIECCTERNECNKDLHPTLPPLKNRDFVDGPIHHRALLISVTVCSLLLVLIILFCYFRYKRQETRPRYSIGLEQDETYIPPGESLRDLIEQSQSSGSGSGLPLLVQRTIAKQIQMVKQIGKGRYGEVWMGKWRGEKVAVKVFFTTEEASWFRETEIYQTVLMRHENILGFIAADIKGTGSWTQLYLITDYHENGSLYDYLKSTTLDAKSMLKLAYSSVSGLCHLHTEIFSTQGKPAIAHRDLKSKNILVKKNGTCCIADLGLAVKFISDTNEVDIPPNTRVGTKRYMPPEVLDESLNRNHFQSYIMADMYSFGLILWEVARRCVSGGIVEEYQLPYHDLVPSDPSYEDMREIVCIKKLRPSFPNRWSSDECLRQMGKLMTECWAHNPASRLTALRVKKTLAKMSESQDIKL

[6] = molecular target: cAMP-dependent protein kinase catalytic subunit alpha (Homo sapiens, UniProt P17612)
[7] = molecular target: T3, Mitogen-activated protein kinase kinase kinase 6 (Homo sapiens, UniProt O95382)
T3 sequence (O95382 whole entry): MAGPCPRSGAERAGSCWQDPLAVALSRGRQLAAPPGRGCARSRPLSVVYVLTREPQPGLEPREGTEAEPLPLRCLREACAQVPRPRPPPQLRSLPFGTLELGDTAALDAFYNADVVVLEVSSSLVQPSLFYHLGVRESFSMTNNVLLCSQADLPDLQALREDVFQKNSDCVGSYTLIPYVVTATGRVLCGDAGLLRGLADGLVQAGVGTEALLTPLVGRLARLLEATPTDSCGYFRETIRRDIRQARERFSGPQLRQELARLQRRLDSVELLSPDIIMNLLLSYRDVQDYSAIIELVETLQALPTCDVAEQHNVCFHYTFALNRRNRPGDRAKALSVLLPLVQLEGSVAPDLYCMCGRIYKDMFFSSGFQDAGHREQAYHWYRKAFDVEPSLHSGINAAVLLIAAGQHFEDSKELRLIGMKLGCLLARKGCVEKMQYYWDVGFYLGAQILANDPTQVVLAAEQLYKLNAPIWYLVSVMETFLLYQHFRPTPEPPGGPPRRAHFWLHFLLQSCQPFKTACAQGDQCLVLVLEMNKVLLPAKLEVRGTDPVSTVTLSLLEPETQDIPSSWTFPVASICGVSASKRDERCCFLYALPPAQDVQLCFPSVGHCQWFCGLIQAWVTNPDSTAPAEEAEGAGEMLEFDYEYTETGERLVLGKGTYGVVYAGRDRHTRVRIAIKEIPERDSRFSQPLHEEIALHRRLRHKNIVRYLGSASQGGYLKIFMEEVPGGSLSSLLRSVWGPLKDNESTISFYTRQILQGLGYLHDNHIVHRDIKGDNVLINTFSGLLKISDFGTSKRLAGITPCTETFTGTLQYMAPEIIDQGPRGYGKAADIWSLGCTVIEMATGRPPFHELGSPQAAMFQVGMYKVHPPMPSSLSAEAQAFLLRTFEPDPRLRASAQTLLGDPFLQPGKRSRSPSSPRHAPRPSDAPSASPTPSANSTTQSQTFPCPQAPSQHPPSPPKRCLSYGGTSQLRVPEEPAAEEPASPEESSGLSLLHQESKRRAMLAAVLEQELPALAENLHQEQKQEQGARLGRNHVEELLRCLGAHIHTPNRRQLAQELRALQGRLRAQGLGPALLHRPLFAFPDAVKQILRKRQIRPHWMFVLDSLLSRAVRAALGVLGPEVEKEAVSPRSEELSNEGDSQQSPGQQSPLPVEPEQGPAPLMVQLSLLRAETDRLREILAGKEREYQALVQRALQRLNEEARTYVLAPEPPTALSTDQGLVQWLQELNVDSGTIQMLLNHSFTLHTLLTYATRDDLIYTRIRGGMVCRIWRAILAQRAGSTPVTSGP

LIM domain kinase 2 = LIM domain kinase 2 (Homo sapiens, UniProt P53671)
Chain of LIM domain kinase 2 (P53671 whole entry, the tested form may be a part): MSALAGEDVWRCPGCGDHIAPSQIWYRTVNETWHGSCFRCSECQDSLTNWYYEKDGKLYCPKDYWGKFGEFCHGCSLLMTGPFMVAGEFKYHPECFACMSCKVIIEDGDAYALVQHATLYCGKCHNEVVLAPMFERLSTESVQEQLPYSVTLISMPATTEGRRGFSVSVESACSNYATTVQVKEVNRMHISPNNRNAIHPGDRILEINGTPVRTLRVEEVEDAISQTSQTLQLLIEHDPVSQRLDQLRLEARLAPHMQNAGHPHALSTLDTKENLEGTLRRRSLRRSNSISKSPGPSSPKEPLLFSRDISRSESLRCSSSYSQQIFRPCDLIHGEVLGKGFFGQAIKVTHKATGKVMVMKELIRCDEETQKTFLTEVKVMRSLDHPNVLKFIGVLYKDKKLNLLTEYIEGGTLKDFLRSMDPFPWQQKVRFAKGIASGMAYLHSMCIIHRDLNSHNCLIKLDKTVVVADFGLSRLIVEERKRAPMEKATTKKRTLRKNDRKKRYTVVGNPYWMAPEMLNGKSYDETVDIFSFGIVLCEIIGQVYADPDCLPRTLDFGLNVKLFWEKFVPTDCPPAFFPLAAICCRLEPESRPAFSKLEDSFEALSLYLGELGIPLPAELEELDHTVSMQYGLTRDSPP

Chain of Mitogen-activated protein kinase 8 (P45983 whole entry): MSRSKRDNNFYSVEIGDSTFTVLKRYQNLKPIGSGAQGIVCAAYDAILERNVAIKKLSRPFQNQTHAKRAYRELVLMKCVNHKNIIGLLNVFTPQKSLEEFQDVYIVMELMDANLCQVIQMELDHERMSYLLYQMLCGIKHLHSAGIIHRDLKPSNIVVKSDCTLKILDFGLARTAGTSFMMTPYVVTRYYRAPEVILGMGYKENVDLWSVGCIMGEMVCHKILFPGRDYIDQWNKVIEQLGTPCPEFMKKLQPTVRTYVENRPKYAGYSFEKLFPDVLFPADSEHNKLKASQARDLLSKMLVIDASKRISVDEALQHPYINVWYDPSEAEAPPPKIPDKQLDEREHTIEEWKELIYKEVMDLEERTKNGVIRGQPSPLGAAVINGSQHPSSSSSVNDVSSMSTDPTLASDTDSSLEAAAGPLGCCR

COc1cc2nccc(Oc3ccc(NC(=O)C4(C(=O)Nc5ccc(F)cc5)CC4)cc3)c2cc1OC [CABOZANTINIB]
Kd [1]: > 30 µM (inactive)
Kd [2]: > 30 µM (inactive)
Kd (Ephrin type-A receptor 2): 0.746 µM (active)
Kd [3]: > 30 µM (inactive)
Kd [4]: > 30 µM (inactive)
Kd [5]: > 30 µM (inactive)
Kd [6]: > 30 µM (inactive)
Kd [7]: > 30 µM (inactive)
Kd (LIM domain kinase 2): > 30 µM (inactive)

O=C(Nc1ccc(OC(F)(F)F)cc1)c1sccc1NCc1ccnc2ccccc12 [OSI-930]
Kd [1]: > 30 µM (inactive)
Kd (Ephrin type-A receptor 2): > 30 µM (inactive)
Kd [3]: > 30 µM (inactive)
Kd [4]: > 30 µM (inactive)
Kd [5]: > 30 µM (inactive)
Kd [6]: > 30 µM (inactive)
Kd [7]: > 30 µM (inactive)
Kd (LIM domain kinase 2): > 30 µM (inactive)

Cc1cc(Nc2nc(N[C@@H](C)c3ncc(F)cn3)ncc2Cl)n[nH]1 [AZD-1480]
Kd [1]: > 30 µM (inactive)
Kd [2]: > 30 µM (inactive)
Kd (Ephrin type-A receptor 2): > 30 µM (inactive)
Kd [3]: > 30 µM (inactive)
Kd [4]: > 30 µM (inactive)
Kd [5]: > 30 µM (inactive)
Kd [6]: > 30 µM (inactive)
Kd [7]: > 30 µM (inactive)
Kd (LIM domain kinase 2): > 30 µM (inactive)

COc1cccc(Nc2ncnn3ccc(CN4CC[C@@H](N)[C@H](O)C4)c23)c1 [BMS-690514]
Kd [1]: > 30 µM (inactive)
Kd [2]: > 30 µM (inactive)
Kd (Ephrin type-A receptor 2): > 30 µM (inactive)
Kd [3]: > 30 µM (inactive)
Kd [4]: > 30 µM (inactive)
Kd [5]: > 30 µM (inactive)
Kd [6]: 0.916 µM (active)
Kd [7]: > 30 µM (inactive)
Kd (LIM domain kinase 2): > 30 µM (inactive)

CC[C@@](C)(Nc1ccnc(-c2c[nH]c3ncccc23)n1)C(=O)NCC(F)(F)F [DECERNOTINIB]
Kd [1]: > 30 µM (inactive)
Kd (Ephrin type-A receptor 2): > 30 µM (inactive)
Kd [3]: > 30 µM (inactive)
Kd [4]: > 30 µM (inactive)
Kd [5]: > 30 µM (inactive)
Kd [6]: > 30 µM (inactive)
Kd [7]: > 30 µM (inactive)
Kd (LIM domain kinase 2): > 30 µM (inactive)

Cc1cc(-c2cc(OC(=O)c3ccccc3)ccc2Cl)cc2nnc(Nc3ccc(OCCN4CCCC4)cc3)nc12 [TG100-801]
Kd [1]: > 30 µM (inactive)
Kd (Ephrin type-A receptor 2): 1.19 µM (active)
Kd [3]: > 30 µM (inactive)
Kd [4]: > 30 µM (inactive)
Kd [5]: > 30 µM (inactive)
Kd [6]: > 30 µM (inactive)
Kd [7]: > 30 µM (inactive)
Kd (LIM domain kinase 2): > 30 µM (inactive)

Cc1cc(C(=O)Nc2cc(Oc3ccc4nc(NC(=O)C5CC5)cn4n3)ccc2C)n(C)n1 [TAK-593]
Kd [1]: > 30 µM (inactive)
Kd (Ephrin type-A receptor 2): > 30 µM (inactive)
Kd [3]: > 30 µM (inactive)
Kd [4]: > 30 µM (inactive)
Kd [5]: > 30 µM (inactive)
Kd [6]: > 30 µM (inactive)
Kd [7]: > 30 µM (inactive)
Kd (LIM domain kinase 2): > 30 µM (inactive)

C=CCN(/C=C1/C(=O)O[C@H](COC)[C@@]2(C)C1=C(O)C(=O)C1=C2[C@H](OC(C)=O)C[C@]2(C)C(=O)CC[C@@H]12)CC=C [SONOLISIB]
Kd [1]: > 30 µM (inactive)
Kd (Ephrin type-A receptor 2): > 30 µM (inactive)
Kd [3]: > 30 µM (inactive)
Kd [4]: > 30 µM (inactive)
Kd [5]: > 30 µM (inactive)
Kd [6]: > 30 µM (inactive)
Kd [7]: > 30 µM (inactive)
Kd (LIM domain kinase 2): > 30 µM (inactive)

COc1cc(Nc2ncc(F)c(Nc3ccc4c(n3)N(COP(=O)(O)O)C(=O)C(C)(C)O4)n2)cc(OC)c1OC [FOSTAMATINIB]
Kd [1]: 2.01 µM (active)
Kd (Ephrin type-A receptor 2): > 30 µM (inactive)
Kd [3]: > 30 µM (inactive)
Kd [4]: > 30 µM (inactive)
Kd [5]: > 30 µM (inactive)
Kd [6]: > 30 µM (inactive)
Kd [7]: > 30 µM (inactive)
Kd (LIM domain kinase 2): > 30 µM (inactive)

CCOc1ccn(-c2ccc(F)cc2)c(=O)c1C(=O)Nc1ccc(Oc2ccnc(N)c2Cl)c(F)c1 [BMS-777607]
Kd [1]: > 30 µM (inactive)
Kd [2]: > 30 µM (inactive)
Kd (Ephrin type-A receptor 2): > 30 µM (inactive)
Kd [3]: > 30 µM (inactive)
Kd [5]: > 30 µM (inactive)
Kd [6]: > 30 µM (inactive)
Kd (LIM domain kinase 2): > 30 µM (inactive)

O=C(O)c1ccc2c(c1)nc(Nc1cccc(Cl)c1)c1ccncc12 [SILMITASERTIB]
Kd [1]: > 30 µM (inactive)
Kd (Ephrin type-A receptor 2): > 30 µM (inactive)
Kd [3]: 3.42 µM (active)
Kd [4]: > 30 µM (inactive)
Kd [5]: > 30 µM (inactive)
Kd [6]: > 30 µM (inactive)
Kd [7]: > 30 µM (inactive)
Kd (LIM domain kinase 2): > 30 µM (inactive)

Cc1c(Cn2c(C)nc3c(C(=O)O)cc(N4CCOCC4)cc32)cccc1C(F)(F)F [GSK-2636771]
Kd [1]: > 30 µM (inactive)
Kd (Ephrin type-A receptor 2): > 30 µM (inactive)
Kd [3]: > 30 µM (inactive)
Kd [4]: > 30 µM (inactive)
Kd [5]: > 30 µM (inactive)
Kd [6]: > 30 µM (inactive)
Kd [7]: > 30 µM (inactive)
Kd (LIM domain kinase 2): > 30 µM (inactive)

COc1cc(F)c(F)c(Nc2ccc(I)cc2F)c1NS(=O)(=O)C1(C[C@H](O)CO)CC1 [REFAMETINIB]
Kd [1]: > 30 µM (inactive)
Kd (Ephrin type-A receptor 2): > 30 µM (inactive)
Kd [3]: > 30 µM (inactive)
Kd [4]: > 30 µM (inactive)
Kd [5]: > 30 µM (inactive)
Kd [6]: > 30 µM (inactive)
Kd [7]: > 30 µM (inactive)
Kd (LIM domain kinase 2): > 30 µM (inactive)

c1cc(OCCN2CCCCC2)cc(-c2n[nH]c3ccc(-c4nc[nH]n4)cc23)c1 [CC-401]
Kd [1]: 0.636 µM (active)
Kd (Ephrin type-A receptor 2): > 30 µM (inactive)
Kd [3]: > 30 µM (inactive)
Kd [4]: > 30 µM (inactive)
Kd [5]: > 30 µM (inactive)
Kd [6]: > 30 µM (inactive)
Kd [7]: > 30 µM (inactive)
Kd (LIM domain kinase 2): > 30 µM (inactive)

O=S(=O)(c1cccc2c(O)nccc12)N1CCCNCC1 [HYDROXYFASUDIL]
Kd [1]: > 30 µM (inactive)
Kd [2]: > 30 µM (inactive)
Kd (Ephrin type-A receptor 2): > 30 µM (inactive)
Kd [3]: > 30 µM (inactive)
Kd [4]: > 30 µM (inactive)
Kd [5]: > 30 µM (inactive)
Kd [7]: > 30 µM (inactive)
Kd (LIM domain kinase 2): > 30 µM (inactive)
